This is an account of results in patent publication US10092575B2, “Substituted thiophene- and furan-fused azolopyrimidine-5-(6H)-one compounds” (DART NEUROSCIENCE (CAYMAN) LTD., priority 2012, dated 2018).

In one assay the test system is NS1 cells. The assay can be described thus: Neurite outgrowth (NOG) assay. In kind it is cell-based. The protocol:
Neuroscreen 1 (NS1) Cells (Cellomics Inc.) were cultured on collagen type I coated 75 cm2 plastic flasks (Biocoat, Becton Dickinson) in a humidified incubator at 37° C. in 5% CO2. Cells were cultured in RPMI complete cell culture medium (Cambrex) supplemented with 10% heat-inactivated horse serum (Invitrogen), 5% heat-inactivated fetal bovine serum (Cellgro), and 2 mM L-glutamine (Cambrex). For expansion, the cells were trypsinized and split at 80% confluence. Cell culture media was changed every 2 to 3 days.
NS1 cells were harvested and counted using a Coulter counter (Becton Dickinson Coulter Z1). Cells were seeded in 96-well collagen I coated plates at a density of 2000 cells per well in volume of […]. RPMI media was supplemented with 200 ng/ml nerve growth factor (NGF, Sigma). NS1 cells were incubated for 72 hours to allow differentiation to a neuronal phenotype. […]
Antibody-stained 96-well plates were stored at 4° C. in the dark until scanning. […] The neurite outgrowth assay is based on two channels to scanning: (1) Channel 1, which detects the Hoechst Dye and is used by the software to identify cells and for automated focusing; and (2) Channel 2, which detects the FITC fluorescence of the secondary antibody and is used by the software to calculate all data generated in reference to neurites. […]

The target in another assay is human PDE1b enzyme (Homo sapiens (Human), UniProt Q01064). The assay can be described thus: PDE1b inhibitory assay (IMAP TR-FRET). The following applies: negative log of half-maximal molar inhibitory concentration; 200 nM FAM-cAMP; reported as ranges. On the technique in general: In TR-FRET formats the signal depends on donor and acceptor labels being close together.

Some results are limits rather than exact numbers.

Regarding `COc1ccc(C2CNC(=O)C2)cc1OC1CCCC1` (stereo not drawn) [Rolipram], the “neurite length and branching / neurite outgrowth” value was “not affected” in the assay with NS1 cells (alone, without forskolin) and “enhanced in dose-dependent manner” with NS1 cells (in combination with forskolin). Take `COc1ccc(Cn2c(=O)n3ncnc3c3c(C)c(CN(C)C4CC4)sc32)cc1` [Example 46, 8-((Cyclopropyl(methyl)amino)methyl)-6-(4-methoxybenzyl)-9-methylthieno[3,2-e][1,2,4]triazolo[1,5-c]pyrimidin-5(6H)-one]: the “PDE1b (pEC50)” value on human PDE1b enzyme is listed as above 7.
